In US20150344466A1 (SUMITOMO CHEMICAL COMPANY, LIMITED, priority 2013, published 2015):

Legend:
Format in all cases: in vivo
Aphis gossypii [1] = assay: Soil treatment test on Aphis gossypii on cucumber (Test Example 9); details: 168 h, 5 ml treatment solution in contact with soil, seven days after putting insects, read-out: controlling value
Protocol: On the other hand, cucumber was planted in a polyethylene cup with a plurality of small holes on the bottom and grown until the first true leaf was spread. A cup in which cucumber was planted was put in a plastic cup with 5 ml of the test treatment solution, so that the soil in the cup was in contact with the treatment liquid. After five days, about 20Aphis gossypii were allowed to parasitize the cucumber, and seven days after putting insects, the number of Aphis gossypii was investigated, and the controlling value was calculated according to the following equation. Controlling value (%)={1−(Cb×Tai)/([…])}×100 In the equation, the symbols represent as follows. Cb: the number of insects in a non-treated section before treatment Cai: the number of insects in a non-treated section on observation Tb: the number of insects in a treated section before treatment Tai: the number of insects in a treated section on observation

Aphis gossypii [2] = assay: Foliar spray test on Aphis gossypii on cucumber (Test Example 8); details: 144 h, 500 ppm spray 20 ml/cup, Sir days after spraying, read-out: controlling value
Protocol: On the other hand, cucumber was planted in a polyethylene cup and grown until the first true leaf was spread, and about 20 Aphis gossypii were allowed to parasitize the cucumber. One day after, the test spray solution was sprayed to the cucumber at a ratio of 20 ml/cup. Sir days after spraying, the number of Aphis gossypii was investigated, and the controlling value was calculated according to the following equation. Controlling value (%)={1−(Cb×Tai)/(Cai×Tb)}×100 In the equation, the symbols represent as follows. Cb: the number of insects in a non-treated section before treatment Cai: the number of insects in a non-treated section on observation Tb: the number of insects in a treated section before treatment Tai: the number of insects in a treated section on observation

Culex pipiens pallens [3] = assay: Knockdown spray test on adult Culex pipiens pallens (Test Example 4); details: topical, 0.25 h, active ingredient 0.1% w/v, 0.5 ml sprayed, within 15 minutes, read-out: knockdown rate of the test insects within 15 minutes
In short: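 Ten adult mosquitoes in a gauze-covered cup inside a 46×46×70 cm chamber were sprayed with 0.5 ml of test solution from 30 cm at 0.4 kg/cm^2. The cup was removed at once, and knocked-down insects were counted at 2, 5 and 15 min; knockdown rate (%) = knocked-down/tested ×100.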

Plutella xylostella = assay: Foliar spray test on Plutella xylostella on cabbage (Test Example 10); details: 120 h, third instar larvae of Plutella xylostella on cabbage, 500 ppm spray 20 ml/cup, after five days, read-out: controlling value
In short: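 Cabbage at the third–fourth true-leaf stage sprayed with test solution at 20 ml/cup, dried, then infested with 10 third-instar larvae. Insects counted after five days; controlling value (%) calculated from treated and non-treated counts before treatment and at observation.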

Culex pipiens pallens [4] = assay: Larvicidal test on Culex pipiens pallens, eight days (Test Example 7); details: 192 h; last-instar larvae of Culex pipiens pallens; 3.5 ppm in water; eight days later; read-out: death rate
In short: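 Twenty last-instar larvae placed in 100 ml ion-exchanged water containing test drug at 3.5 ppm active ingredient. Mortality scored after eight days; death rate = dead/tested × 100.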

Spodoptera litura = assay: Foliar spray test on Spodoptera litura on cabbage (Test Example 11); details: 96 h, fourth instar larvae of Spodoptera litura on cabbage, 500 ppm spray 20 ml/cup, after 4 days, read-out: controlling value
In short: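 Cabbage is grown in cups to the third–fourth true leaf and sprayed at 20 ml/cup. Once the spray has dried, 10 fourth-instar larvae are released per cup and survivors are counted after 4 days. Controlling value (%) is corrected using pre-treatment and observation counts in treated and untreated sections.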

Blattella germanica [5] = assay: Knockdown spray test on Blattella germanica, 0.1% w/v oil formulation (Test Example 2); details: topical, 0.25 h, active ingredient 0.1% w/v, 1.5 ml sprayed, within 15 minutes, read-out: knockdown rate of the test insects within 15 minutes
In short: (§1)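 Ten German cockroaches (5 males, 5 females) in a mesh-bottomed, butter-walled container were sprayed with 1.5 ml test solution from 60 cm at 0.42 kg/cm^2 inside a chamber.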

[6] = tested on: Adoxophyes orana fasciata; assay: Spray test on Adoxophyes orana fasciata on apple seedling (Test Example 12); details: 168 h, first-instar larvae of Adoxophyes orana fasciata on apple seedling, 20 ml spray, seven days after spraying
Protocol: On the other hand, 20 ml of the test spray solution was each sprayed on an apple seedling (28 days after sowing, a tree height of about 15 cm) planted in a plastic cup. After the drug solution sprayed on the apple was air-dried, about 30 first-instar larvae of Adoxophyes orana fasciata were released. Seven days after spraying, the number of surviving Adoxophyes orana fasciata on the apple seedling was investigated, and the controlling value was calculated according to the following equation. Controlling value (%)={1−(Cb×Tai)/(Cai×Tb)}×100 In the equation, the symbols represent as follows. Cb: the number of insects in a non-treated section before treatment Cai: the number of insects in a non-treated section on observation Tb: the number of insects in a treated section before treatment Tai: the number of insects in a treated section on observation

Musca domestica [7] = assay: Knockdown spray test on adult Musca domestica (Test Example 3); details: topical, 0.25 h, active ingredient 2.0% w/v, 0.5 ml sprayed, within 15 minutes, read-out: knockdown rate of the test insects within 15 minutes
In short: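 Ten adult house flies (5 male, 5 female) in a gauze-covered cup sprayed with 0.5 ml test solution from 30 cm at 0.9 kg/cm^2 inside a chamber, then removed. Knocked-down flies counted at 2, 5 and 15 min and expressed as % of insects tested.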

Blattella germanica [8] = assay: Knockdown spray test on Blattella germanica, 2.0% w/v oil formulation (Test Example 1); details: topical, 0.25 h, active ingredient 2.0% w/v, 1.5 ml sprayed, within 15 minutes, read-out: knockdown rate of the test insects within 15 minutes
In short: as §1

Culex pipiens pallens [9] = assay: Larvicidal test on Culex pipiens pallens, one day (Test Example 6); details: 24 h; last-instar larvae of Culex pipiens pallens; 3.5 ppm in water; one day later; read-out: death rate
In short: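 Twenty last-instar larvae were placed in 100 ml ion-exchanged water holding 0.7 ml of a 500 ppm aqueous dilution of the formulated compound, giving 3.5 ppm active ingredient. Survival was scored after one day and death rate expressed as dead/tested × 100.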

Musca domestica [10] = assay: Filter paper/sucrose bait death rate test on Musca domestica (Test Example 5); details: female imagoes of Musca domestica, 0.7 ml on filter paper, after 24 hours
In short: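 Filter paper in a 5.5 cm cup dosed with 0.7 ml test drug solution, with 30 mg sucrose as bait. Ten female adult houseflies released and cup sealed. Dead insects counted after 24 h; death rate (%) = dead/tested × 100.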

SMILES	pest or weed control at 500 ppm (Aphis gossypii [1])	pest or weed control at 500 ppm (Aphis gossypii [2])	pest or weed control at 0.1 % strength (Culex pipiens pallens [3])	pest or weed control at 500 ppm (Plutella xylostella)	pest or weed control at 3.5 ppm (Culex pipiens pallens [4])	pest or weed control at 500 ppm (Spodoptera litura)	pest or weed control at 0.1 % strength (Blattella germanica [5])	pest or weed control at 500 ppm [6]	pest or weed control at 2 % strength (Musca domestica [7])	pest or weed control at 2 % strength (Blattella germanica [8])	pest or weed control at 3.5 ppm (Culex pipiens pallens [9])	pest or weed control at 500 ppm (Musca domestica [10])
O=C(NCC1CCOC1)c1cc(C(F)c2ccccc2)on1 (stereo not drawn) [(154), N-(tetrahydrofuran-3-ylmethyl)-5-(1-fluoro-1-phenylmethyl)isoxazole-3-carboxamide]	≥ 90%	≥ 90%	–	–	–	–	–	–	–	–	–	–
CC(OCc1ccccc1)c1cc(C(=O)NCC2CCOC2)no1 (stereo not drawn) [(129), N-(tetrahydrofuran-3-ylmethyl)-5-[1-(benzyloxy)ethyl]isoxazole-3-carboxamide]	≥ 90%	≥ 90%	–	–	–	–	–	–	–	–	–	–
O=C(NCC1CCOCC1)c1cc(COCc2ccc(Cl)c(Cl)c2)on1 [(73), N-(tetrahydropyran-4-ylmethyl)-5-(3,4-dichlorobenzyloxymethyl)isoxazole-3-carboxamide]	–	≥ 90%	≥ 80%	≥ 90%	≥ 90%	≥ 80%	≥ 80%	100%	–	–	–	–
O=C(NCC1CCOC1)c1cc(COCC2Oc3ccccc3O2)on1 (stereo not drawn) [(122), N-(tetrahydrofuran-3-ylmethyl)-5-(1,3-benzodioxolan-2-ylmethoxymethyl)isoxazole-3-carboxamide]	–	–	≥ 80%	–	–	–	≥ 80%	100%	–	–	–	–
O=C(NCC1CCOC1)c1cc(COCc2ccc3c(c2)CCCC3)on1 (stereo not drawn) [(119), N-(tetrahydrofuran-3-ylmethyl)-5-(5,6,7,8-tetrahydronaphthalen-2-ylmethoxymethyl)isoxazole-3-carboxamide]	–	≥ 90%	≥ 80%	≥ 90%	≥ 90%	–	–	–	≥ 80%	≥ 80%	–	–
O=C(NCC1CCOC1)c1noc(COCc2ccccc2)c1C(F)F (stereo not drawn) [(171), N-(tetrahydrofuran-3-ylmethyl)-(5-benzyloxymethyl-4-difluoromethyl)isoxazole-3-carboxamide]	–	–	≥ 80%	≥ 90%	≥ 90%	≥ 80%	–	100%	–	–	≥ 90%	–
O=C(NCC1CCOC1)c1noc(COCc2ccccc2)c1CF (stereo not drawn) [(170), N-(tetrahydrofuran-3-ylmethyl)-(5-benzyloxymethyl-4-fluoromethyl)isoxazole-3-carboxamide]	–	–	≥ 80%	≥ 90%	≥ 90%	–	≥ 80%	100%	–	–	≥ 90%	–
O=C(NCC1CCOCC1)c1cc(COCc2cccc(SC(F)(F)F)c2)on1 [(81), N-(tetrahydropyran-4-ylmethyl)-5-(3-trifluoromethylthiobenzyloxymethyl)isoxazole-3-carboxamide]	–	≥ 90%	≥ 80%	≥ 90%	–	≥ 80%	–	–	–	–	–	–
O=C(NCC1CCOCC1)c1cc(COCc2cccc(C(F)(F)F)c2)on1 [(65)]	–	≥ 90%	≥ 80%	≥ 90%	–	≥ 80%	–	100%	≥ 80%	≥ 80%	–	–
O=C(NCC1CCS(=O)(=O)C1)c1cc(COCc2ccccc2)on1 (stereo not drawn) [(39), N-(1,1-dioxotetrahydrothiophen-3-ylmethyl)-5-benzyloxymethylisoxazole-3-carboxamide]	–	–	–	≥ 90%	≥ 90%	–	–	100%	–	–	≥ 90%	–
O=C(NCC1CCOCC1)c1cc(COc2ccc(Cl)c(Cl)c2)on1 [(183)]	–	–	≥ 80%	–	≥ 90%	≥ 80%	–	100%	–	–	≥ 90%	–
O=C(NCC1CCOC1)c1cc(CCCCCCCOc2ccc3ccccc3n2)on1 (stereo not drawn) [(150), N-(tetrahydrofuran-3-ylmethyl)-5-[7-(2-quinolyloxy)heptyl]isoxazole-3-carboxamide]	–	–	≥ 80%	≥ 90%	≥ 90%	–	–	100%	≥ 80%	–	≥ 90%	≥ 90%
O=C(NCC1CCOC1)c1cc(CCCc2ccc3c(c2)OCO3)on1 (stereo not drawn) [(234), N-(tetrahydrofuran-3-ylmethyl)-5-[3-(1,3-benzodioxolan-5-yl)propyl]isoxazole-3-carboxamide]	–	–	≥ 80%	≥ 90%	–	≥ 80%	≥ 80%	100%	–	–	≥ 90%	≥ 90%
